Test results as given in PMC6536496, “Modulation of antibiotic sensitivity and biofilm formation in Pseudomonas aeruginosa by interspecies signal analogues” (Nature Communications, 2019).

Molecular target: T1, PA1396 (Pseudomonas aeruginosa, UniProt Q9I3U8)
T1 construct: reporter rows: PA1396 in P. aeruginosa cells
Experiment: auto-phosphorylation in liposomes, […] SDS-PAGE
Format: biochemical
Settings: 10 mM MgCl2, 1 mM DTT, room temperature, 10 min

T1 sequence (Q9I3U8 entry or part of it): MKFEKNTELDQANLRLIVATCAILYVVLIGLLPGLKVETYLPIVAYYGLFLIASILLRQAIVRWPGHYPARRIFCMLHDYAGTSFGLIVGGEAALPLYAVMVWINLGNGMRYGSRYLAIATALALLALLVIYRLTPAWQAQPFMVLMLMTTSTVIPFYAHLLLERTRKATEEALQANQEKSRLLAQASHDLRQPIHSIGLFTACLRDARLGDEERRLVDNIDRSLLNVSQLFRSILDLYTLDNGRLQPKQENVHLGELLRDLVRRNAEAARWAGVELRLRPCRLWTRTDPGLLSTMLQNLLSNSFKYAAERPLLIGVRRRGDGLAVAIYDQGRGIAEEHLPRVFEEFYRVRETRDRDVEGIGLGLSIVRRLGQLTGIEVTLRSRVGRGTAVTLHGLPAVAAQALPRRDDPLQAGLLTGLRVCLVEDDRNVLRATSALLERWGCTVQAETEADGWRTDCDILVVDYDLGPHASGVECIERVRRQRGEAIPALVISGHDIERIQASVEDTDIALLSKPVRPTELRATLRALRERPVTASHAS

| SMILES | auto-phosphorylation in liposomes, 32P SDS-PAGE (agonist, 10 µM) | auto-phosphorylation in liposomes, 32P SDS-PAGE (antagonist against 10 µM DSF) |
| --- | --- | --- |
| CC(C)CCCCCCC/C=C\C(=O)O [C1, cis-11-methyl-2-dodecenoic acid] | addition of DSF to PA1396-loaded liposomes led to a robust increase in the level | – |
| CC(C)CCCCCCC/C=C\C(=O)NS(C)(=O)=O [C23, (Z)-11-methyl-N-(methylsulfonyl)dodec-2-enamide] | – | C23 blocks the recognition of DSF by PA1396 |
